Measurements from ChEMBL document CHEMBL6103659, “Structural Studies of the Dopamine D4 Receptor Antagonist Sonepiprazole as an Inhibitor of Human Carbonic Anhydrases” (ACS Med Chem Lett, 2025).
pKi: −log10 of the molar value.

How the values were obtained:
Carbonic anhydrase 12 = Carbonic anhydrase 12 (Homo sapiens, UniProt O43570)
Carbonic anhydrase 3 = Carbonic anhydrase 3 (Homo sapiens, UniProt P07451)
Carbonic anhydrase 1 = Carbonic anhydrase 1 (Homo sapiens, UniProt P00915)
Carbonic anhydrase 2 = Carbonic anhydrase 2 (Homo sapiens, UniProt P00918)
Carbonic anhydrase 9 = Carbonic anhydrase 9 (Homo sapiens, UniProt Q16790)
Carbonic anhydrase 7 = Carbonic anhydrase 7 (Homo sapiens, UniProt P43166)
Carbonic anhydrase 7, sequence (P43166 whole entry): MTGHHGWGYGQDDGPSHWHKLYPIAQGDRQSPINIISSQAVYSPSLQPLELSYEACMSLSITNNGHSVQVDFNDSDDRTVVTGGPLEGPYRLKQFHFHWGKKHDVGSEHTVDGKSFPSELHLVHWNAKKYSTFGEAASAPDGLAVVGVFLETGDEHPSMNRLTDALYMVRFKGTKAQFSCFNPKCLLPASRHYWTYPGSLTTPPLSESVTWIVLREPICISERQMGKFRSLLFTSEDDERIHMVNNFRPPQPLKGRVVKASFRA

Carbonic anhydrase 3, sequence (P07451 whole entry): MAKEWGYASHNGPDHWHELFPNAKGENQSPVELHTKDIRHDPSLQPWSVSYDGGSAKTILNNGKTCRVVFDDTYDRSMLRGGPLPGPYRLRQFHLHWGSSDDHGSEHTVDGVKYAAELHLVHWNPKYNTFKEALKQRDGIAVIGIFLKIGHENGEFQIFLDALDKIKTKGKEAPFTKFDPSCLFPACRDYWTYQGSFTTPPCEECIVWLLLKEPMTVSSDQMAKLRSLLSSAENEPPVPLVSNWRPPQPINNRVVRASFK
Carbonic anhydrase 12, sequence (O43570 whole entry): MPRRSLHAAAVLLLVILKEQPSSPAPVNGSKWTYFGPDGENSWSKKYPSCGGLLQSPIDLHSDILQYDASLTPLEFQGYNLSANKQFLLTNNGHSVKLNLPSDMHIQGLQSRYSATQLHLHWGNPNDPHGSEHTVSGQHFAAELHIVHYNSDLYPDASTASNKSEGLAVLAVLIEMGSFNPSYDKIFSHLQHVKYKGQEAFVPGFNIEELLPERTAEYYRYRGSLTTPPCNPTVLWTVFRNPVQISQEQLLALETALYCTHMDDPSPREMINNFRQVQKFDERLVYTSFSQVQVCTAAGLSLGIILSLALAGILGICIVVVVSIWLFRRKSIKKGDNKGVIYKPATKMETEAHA
Carbonic anhydrase 1, sequence (P00915 whole entry): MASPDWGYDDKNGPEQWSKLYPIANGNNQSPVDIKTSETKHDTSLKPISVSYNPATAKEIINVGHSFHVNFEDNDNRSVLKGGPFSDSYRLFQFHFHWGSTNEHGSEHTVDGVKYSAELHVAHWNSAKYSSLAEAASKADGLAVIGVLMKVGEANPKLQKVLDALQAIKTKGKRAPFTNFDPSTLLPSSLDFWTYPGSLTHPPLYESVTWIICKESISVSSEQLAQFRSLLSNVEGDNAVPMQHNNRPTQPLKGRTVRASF

pKi (Carbonic anhydrase 12)	pKi (Carbonic anhydrase 3)	pKi (Carbonic anhydrase 1)	pKi (Carbonic anhydrase 2)	pKi (Carbonic anhydrase 9)	pKi (Carbonic anhydrase 7)	SMILES
7.62	< 5.00	5.56	6.39	7.51	6.01	C=CCN1CCCC1CNC(=O)c1cc(S(N)(=O)=O)cc(OC)c1OC (configuration not stated) [VERALIPRIDE]
–	< 5.00	–	–	–	–	NS(=O)(=O)c1ccc(N2CCN(CC[C@@H]3OCCc4ccccc43)CC2)cc1 [SONEPIPRAZOLE]
